{"source": "patent US20180153952A1", "about": "“COMPOSITIONS AND METHODS FOR TREATING POST OPERATIVE COGNITIVE DYSFUNCTION AND NEUROIN[…] ANNEXIN A1 (ANXA1) PEPTIDES” (Duke University, priority 2016, published 2018)", "key": {"[1]": {"test_system": "cerebral microglia activation", "assay": "Microglia activation after orthopedic surgery (F4/80 immunostaining, stereological analysis)", "assay_type": "in vivo", "conditions": "mice after orthopedic surgery, ANXA1sp 1 mg/kg 1 hr before surgery, 24 hr post-surgery, F4/80 positive cells, vs untreated animals", "method": "Male C57BL/6 mice (12 weeks) were subjected to orthopedic surgery and treated with ANXA1sp (1 mg/kg) 1 hr before surgery. At 24 hr of post-surgery, brain levels of microglia activation was determined by immunostaining with a biomarker F4/80. Stereological analysis of F4/80 positive cells was shown in the bar graph. N=5 (Naïve), 10 (Surgery), and 4 (ANXA1sp). Data are presented as mean+SD. **P<0.01 vs. Naïve; #P<0.05 vs. Surgery. One-way ANOVA with Multiple Comparisons. (FIG. 13)."}, "SIRT3": {"test_system": "SIRT3", "assay": "Hippocampal mitochondrial SIRT3 expression after orthopedic surgery", "assay_type": "in vivo", "conditions": "mice after orthopedic surgery, time-dependent"}, "ANXA1": {"test_system": "ANXA1", "assay": "Hippocampal/brain ANXA1 levels after orthopedic surgery", "assay_type": "in vivo, mice", "description": "Surgery reduced levels of endogenous ANXA1 in the brain at 24 hr (FIG. 25A, FIG. 25B for quantification). […] N=3-4; **P<0.01, ***P<0.001. One-way ANOVA with Multiple Comparisons."}, "MPO": {"test_system": "MPO", "assay": "Plasma/systemic MPO levels after orthopedic surgery", "assay_type": "in vivo, mice", "description": "(§1) Systemic cytokines, including IL-6, are found elevated in patients developing delirium and POCD and may serve as potential biomarkers. […] N=4-5 (adult), N=1-5 (aged); **P<0.01. Two-way ANOVA with Multiple Comparisons."}, "NLRP3 inflammasome": {"test_system": "NLRP3 inflammasome", "assay": "NLRP3 expression/inflammasome activation in hippocampus after orthopedic surgery (Western blot)", "assay_type": "in vivo, mice", "conditions": "for NLRP3 activation: ANXA1sp 1 mg/kg 30 min before surgery", "method": "(§2) Representative Western Blot images in adult (12 weeks-old) and aged (20 months-old) C57BL/6 mice for NLRP3 (FIG. 18A), Caspase-1 (FIG. 18C), and IL1β (FIG. 18E) (three key components of the inflammasome complex) and quantification. […] Data are presented as mean±SD. […] One-way ANOVA with Multiple Comparisons.\nMale C57BL/6 mice received ANXA1sp (1 mg/kg) 30 min before surgery. […] Data are presented as mean±SD. […] Two-way ANOVA with Multiple Comparisons."}, "Caspase-1": {"test_system": "Caspase-1", "assay": "Caspase-1 activation in hippocampus after orthopedic surgery (Western blot)", "assay_type": "in vivo, mice", "method": "as §2\n(§3) Male C57BL/6 mice received ANXA1sp (1 mg/kg) 30 min before surgery. Representative blots of Caspase-1 activation and IL1β secretion. […] Data are presented as mean±SD. N=4-5; *P<0.05, **P<0.01, ***P<0.001. Two-way ANOVA with Multiple Comparisons."}, "IL-1β": {"test_system": "IL-1β", "assay": "IL-1β secretion in hippocampus after orthopedic surgery (Western blot)", "assay_type": "in vivo, mice", "method": "as §2, §3"}, "memory function": {"test_system": "memory function", "assay": "\"What-when-where\" task of object recognition memory after orthopedic surgery", "assay_type": "in vivo, mice", "description": "After orthopedic surgery mice have reduced preferences for the replacement of objects (what), and for the original location of the displaced object (where); but they show a […] preference the order of presentation (when). […] Data are presented as mean±SD. N=10. *P<0.05 and **P<0.01 vs. surgery+vehicle using MANOVA. (FIG. 17)."}, "[2]": {"test_system": "OXPHOS mitochondrial electron transport chain complexes", "assay": "Hippocampal total OXPHOS (Western blot) after orthopedic surgery", "assay_type": "in vivo", "conditions": "mice (13 weeks) after orthopedic surgery", "method": "(§4) Male C57BL/6 mice (13 weeks) were subjected to orthopedic surgery. Naïve animals (no surgery at 0 hour) were used as baseline-control. At 3, 6, and 24 hours of post-surgery, the total OXPHOS in hippocampus was determined by Western blot (FIG. 23A) and (FIG. 23B). Time-dependent increased hippocampal ATP production were determined by ELISA (FIG. 23C). […] Data are presented as mean±SD. N=4; **P<0.01, ***P<0.001. One-way ANOVA with Multiple Comparisons."}, "[3]": {"test_system": "hippocampal ATP production", "assay": "Hippocampal ATP production (ELISA) after orthopedic surgery", "assay_type": "in vivo", "conditions": "mice (13 weeks) after orthopedic surgery", "method": "as §4"}, "citrate synthetase (CS)": {"test_system": "citrate synthetase (CS)", "assay": "Hippocampus citrate synthetase (CS, Western blot) after orthopedic surgery", "assay_type": "in vivo", "conditions": "mice (13 weeks) after orthopedic surgery", "method": "Male C57BL/6 mice (13 weeks) were subjected to orthopedic surgery while naïve animals were as baseline-control. At 3, 6, and 24 hours of post-surgery, the hippocampus CS was determined by Western blot (FIG. 24A) and (FIG. 24B). […] Data are presented as mean±SD. N=4; **P<0.01, ***P<0.001, ****P<0.0001. One-way ANOVA with Multiple Comparisons."}, "IL-6": {"test_system": "IL-6", "assay": "Systemic IL-6 after orthopedic surgery", "assay_type": "in vivo", "conditions": "mice after orthopedic surgery", "description": "as §1"}, "[4]": {"conditions": "brain (hippocampus) of mice after orthopedic surgery"}}, "note": "“Also recorded” adds a separate entry of the source.", "data": [{"substance": "Ac-Gln-Ala-Trp [ANXA1sp]", "values": [{"measurement": "cerebral microglia activation", "setting": "[1]", "value": "significantly attenuated"}, {"measurement": "hippocampal mitochondrial SIRT3 expression/activation", "setting": "SIRT3", "value": "significantly increases/activates; also recorded: significantly higher expression"}, {"measurement": "levels of ANXA-1 in the brain", "setting": "ANXA1; 24 hr after surgery, 1 mg/kg ANXA1sp", "value": "significantly increase"}, {"measurement": "hippocampal ANXA1 levels", "setting": "ANXA1; mice after orthopedic surgery", "value": "significantly increased"}, {"measurement": "plasma levels of meloperoxidase (MPO)", "setting": "MPO; mice after orthopedic surgery, time-dependent", "value": "reduced; also recorded: significantly decreased"}, {"measurement": "systemic levels of MPO", "setting": "MPO; mice, 24 hr after orthopedic surgery, listed as ANXA-1sp", "value": "reduced"}, {"measurement": "NLRP3 activation", "setting": "NLRP3 inflammasome; adult and aged mice, 24 hr after surgery", "value": "significantly reduced"}, {"measurement": "NLRP3 activation", "setting": "NLRP3 inflammasome; aged mice, 6 hr after surgery", "value": "significantly reduced"}, {"measurement": "NLRP3 expression or NLRP3 inflammasome activation", "setting": "NLRP3 inflammasome; [4]", "value": "inhibits; also recorded: significant inhibition; also recorded: reduces"}, {"measurement": "levels of Caspase-1", "setting": "Caspase-1; adult and aged mice after surgery, ANXA1sp 1 mg/kg 30 min before surgery", "value": "significantly reduced"}, {"measurement": "activation of caspase-1", "setting": "Caspase-1; [4]", "value": "significantly inhibited"}, {"measurement": "secreted IL1β", "setting": "IL-1β; adult mice after surgery, ANXA1sp 1 mg/kg 30 min before surgery", "value": "no significance"}, {"measurement": "activation of IL-1β", "setting": "IL-1β; [4]", "value": "significantly inhibited"}, {"measurement": "memory deficits (what-when-where object recognition preference scores)", "setting": "memory function; mice after orthopedic surgery, vs surgery+vehicle", "value": "significantly improves"}, {"measurement": "exploration of the displaced/replaced object", "setting": "memory function; surgery+ANXA1sp mice, vs original anchor object and two most recently seen objects", "value": "greater exploration"}, {"measurement": "hippocampal total OXPHOS, particularly complex IV", "setting": "[2]", "value": "significantly regulated"}, {"measurement": "hippocampal ATP production", "setting": "[3]", "value": "attenuated"}, {"measurement": "numbers of CS (citrate synthetase, biomarker of numbers of mitochondria)", "setting": "citrate synthetase (CS)", "value": "significantly increased"}, {"measurement": "systemic IL-6", "setting": "IL-6", "value": "significantly reduced"}, {"measurement": "systemic IL-6", "setting": "IL-6; listed as ANXA-1sp", "value": "reduced"}]}]}
